In patent publication US20220061324A1, “PESTICIDALLY ACTIVE HETEROCYCLIC DERIVATIVES WITH SULFUR CONTAINING SUBSTITUENTS” (SYNGENTA CROP PROTECTION AG, priority 2018, published 2022):

Assays:
Assay type in all cases: in vivo
[1] = tested on: Diabrotica balteata (Corn Root Worm); assay: Activity against Diabrotica balteata (corn root worm), maize sprouts sprayed; settings: 96 h, application rate 200 ppm, L2 larvae, 4 days after infestation, read-out: effect in at least one of the two categories (mortality or growth inhibition)
Protocol: Example B1: Activity Against Diabrotica balteata (Corn Root Worm)
Maize sprouts placed onto an agar layer in 24-well microtiter plates were treated with aqueous test solutions prepared from 10,000 ppm DMSO stock solutions by spraying. After drying, the plates were infested with L2 larvae (6 to 10 per well). The samples were assessed for mortality and growth inhibition in comparison to untreated samples 4 days after infestation.

[2] = tested on: Plutella xylostella (Diamond Back Moth); assay: Activity against Plutella xylostella (diamond back moth), artificial diet; settings: 192 h, application rate 200 ppm, eggs, 8 days after infestation, read-out: effect in at least one of the two categories (mortality or growth inhibition)
Protocol: Example B3: Activity Against Plutella xylostella (Diamond Back Moth)
24-well microtiter plates with artificial diet were treated with aqueous test solutions prepared from 10,000 ppm DMSO stock solutions by pipetting. After drying, Plutella eggs were pipetted through a plastic stencil onto a gel blotting paper and the plate was closed with it. The samples were assessed for mortality and growth inhibition in comparison to untreated samples 8 days after infestation.

[3] = tested on: Myzus persicae (Green Peach Aphid); assay: Activity against Myzus persicae (green peach aphid), feeding/contact activity; settings: 144 h, application rate 200 ppm, feeding/contact, mixed ages, 6 days after infestation, read-out: mortality
Protocol: Example B4: Activity Against Myzus persicae (Green Peach Aphid) Feeding/Contact Activity
Sunflower leaf discs were placed onto agar in a 24-well microtiter plate and sprayed with aqueous test solutions prepared from 10,000 ppm DMSO stock solutions. After drying, the leaf discs were infested with an aphid population of mixed ages. The samples were assessed for mortality 6 days after infestation.

[4] = tested on: Spodoptera littoralis (Egyptian Cotton Leaf Worm); assay: Activity against Spodoptera littoralis (Egyptian cotton leaf worm), cotton leaf discs; settings: foliar, 72 h, application rate 200 ppm, L1 larvae, 3 days after infestation, read-out: control (mortality, anti-feedant effect or growth inhibition)
Protocol: Example B5: Activity Against Spodoptera littoralis (Egyptian Cotton Leaf Worm)
Cotton leaf discs were placed onto agar in 24-well microtiter plates and sprayed with aqueous test solutions prepared from 10,000 ppm DMSO stock solutions. After drying the leaf discs were infested with five L1 larvae. The samples were assessed for mortality, anti-feeding effect, and growth inhibition in comparison to untreated samples 3 days after infestation. Control of Spodoptera littoralis by a test sample is given when at least one of the categories mortality, anti-feedant effect, and growth inhibition is higher than the untreated sample.

[5] = tested on: Euschistus heros (Neotropical Brown Stink Bug); assay: Activity against Euschistus heros (neotropical brown stink bug), soybean leaves sprayed; settings: 120 h, application rate 200 ppm, N2 nymphs, 5 days after infestation, read-out: effect in at least one of the two categories (mortality or growth inhibition)
Protocol: Example B2: Activity Against Euschistus heros (Neotropical Brown Stink Bug)
Soybean leaves on agar in 24-well microtiter plates were sprayed with aqueous test solutions prepared from 10,000 ppm DMSO stock solutions. After drying the leaves were infested with N2 nymphs. The samples were assessed for mortality and growth inhibition in comparison to untreated samples 5 days after infestation.

CCS(=O)(=O)c1ccc(NC)nc1-c1ncc2c(OCC(F)(F)C(F)(F)F)cccn12 [Compound P31, 5-ethylsulfonyl-N-methyl-6-[8-(2,2,3,3,3-penta-fluoropropoxy)imidazo [1,5-a]pyridin-3-yl]pyri-din-2-amine]
≥ 80%: percent effect (mortality or growth inhibition) at 200 ppm [1] | percent effect (mortality or growth inhibition) at 200 ppm [2] | mortality at 200 ppm [3] | percent control (mortality, anti-feedant effect or growth inhibition) at 200 ppm [4]

CCS(=O)(=O)c1cc(C2(C#N)CC2)cnc1-c1ncc2c(OCC(F)(F)C(F)(F)F)cccn12 [Compound P35, 1-[5-ethylsulfonyl-6-[8-(2,2,3,3,3-penta-fluoropropoxy)imidazo [1,5-a]pyridin-3-yl]-3-pyridyl]cyclopropane-carbonitrile]
≥ 80%: percent effect (mortality or growth inhibition) at 200 ppm [1] | percent effect (mortality or growth inhibition) at 200 ppm [5] | percent effect (mortality or growth inhibition) at 200 ppm [2] | percent control (mortality, anti-feedant effect or growth inhibition) at 200 ppm [4]

CCS(=O)(=O)c1cc(Oc2ccccn2)cnc1-c1ncc2c(OCC(F)(F)C(F)(F)F)cccn12 [Compound P36, 3-[3-ethylsulfonyl-5-(2-pyridyloxy)-2-pyridyl]-8-(2,2,3,3,3-penta-fluoropropoxy)imidazo [1,5-a]pyridine]
≥ 80%: percent effect (mortality or growth inhibition) at 200 ppm [1] | percent effect (mortality or growth inhibition) at 200 ppm [5] | percent effect (mortality or growth inhibition) at 200 ppm [2] | mortality at 200 ppm [3]

CCS(=O)(=O)c1cc(N(C)C(C)=O)cnc1-c1ncc2c(OCC(F)(F)C(F)(F)F)cccn12 [Compound P39, N-[5-ethylsulfonyl-6-[8-(2,2,3,3,3-penta-fluoropropoxy)imidazo [1,5-a]pyridin-3-yl]-3-pyridyl]-N-methyl-acetamide]
≥ 80%: percent effect (mortality or growth inhibition) at 200 ppm [5] | percent effect (mortality or growth inhibition) at 200 ppm [2] | mortality at 200 ppm [3]

CCS(=O)(=O)c1cc(N=S(C)(C)=O)cnc1-c1ncc2c(OCC(F)(F)C(F)(F)F)cccn12 [Compound P45, [5-ethylsulfonyl-6-[8-(2,2,3,3,3-penta-fluoropropoxy)imidazo [1,5-a]pyridin-3-yl]-3-pyridyl]imino-dimethyl-oxo-λ^6-sulfane]
≥ 80%: percent effect (mortality or growth inhibition) at 200 ppm [5] | percent effect (mortality or growth inhibition) at 200 ppm [2] | mortality at 200 ppm [3]

CCS(=O)(=O)c1cc(OC(C)(C)C#N)cnc1-c1ncc2c(OCC(F)(F)C(F)(F)F)cccn12 [Compound P47, 2-[[5-ethylsulfonyl-6-[8-(2,2,3,3,3-penta-fluoropropoxy)imidazo [1,5-a]pyridin-3-yl]-3-pyridyl]oxy]-2-methyl-propanenitrile]
≥ 80%: percent effect (mortality or growth inhibition) at 200 ppm [1] | percent effect (mortality or growth inhibition) at 200 ppm [5] | percent effect (mortality or growth inhibition) at 200 ppm [2] | mortality at 200 ppm [3]

CCSc1cc(OC(C)(C)C#N)cnc1-c1ncc2c(OCC(F)(F)C(F)(F)F)nccn12 [Compound P50, 2-[[5-ethylsulfanyl-6-[8-(2,2,3,3,3-penta-fluoropropoxy)imidazo [1,5-a]pyrazin-3-yl]-3-pyridyl]oxy]-2-methyl-propanenitrile]
≥ 80%: percent effect (mortality or growth inhibition) at 200 ppm [1] | percent effect (mortality or growth inhibition) at 200 ppm [5] | percent effect (mortality or growth inhibition) at 200 ppm [2] | percent control (mortality, anti-feedant effect or growth inhibition) at 200 ppm [4]
